From paper PMC8298097 (eLife, 2021)
Blank lines part the entries; values can stand above or below the substance they belong to.

What was measured:
[1] = test system: GCGR; settings: cognate receptor, ref Yuliantie et al., 2020, Darbalaei et al.; cited from earlier work
[2] = test system: GIPR; settings: maximum response compared with human GIP; ref Sparre-Ulrich et al., 2016; Bailey, 2020; cited from earlier work
Text: Species differences in class B1 receptor responsiveness are diversified and receptor specific, which is tolerable for some receptors such as GLP-1R and GCGR, but leads to concerns for others like GIPR and parathyroid hormone receptor-2 (PTH2R) ([Sparre-Ulrich et al., 2016]; [Hoare et al., 1999]). […] Such a divergence is not caused by changes in peptide potency, but r ...

[3] = target: T1, human GIPR Y68A, HA-Flag-3GSA-GIPR(22-466) (human) (UniProt P48546)
T1 sequence: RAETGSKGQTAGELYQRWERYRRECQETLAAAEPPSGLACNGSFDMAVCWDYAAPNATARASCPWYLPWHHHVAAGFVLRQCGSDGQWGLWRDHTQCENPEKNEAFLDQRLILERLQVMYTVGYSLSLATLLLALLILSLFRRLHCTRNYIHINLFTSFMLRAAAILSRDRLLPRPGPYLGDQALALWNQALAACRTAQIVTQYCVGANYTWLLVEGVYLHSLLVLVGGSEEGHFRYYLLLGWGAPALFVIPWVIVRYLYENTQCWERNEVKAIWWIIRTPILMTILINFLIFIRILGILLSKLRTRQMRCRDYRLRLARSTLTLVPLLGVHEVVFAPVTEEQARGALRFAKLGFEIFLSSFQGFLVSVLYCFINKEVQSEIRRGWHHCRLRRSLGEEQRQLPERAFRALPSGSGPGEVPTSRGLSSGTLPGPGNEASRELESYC

Substance: glucagon
- pIC50 [1]: 7.31

Substance: Human (Pro3)GIP: full agonist with identical maximum response as human GIP (YAPGTFISDYSIAMDKIHQQDFVNWLLAQKGKKNDWKHNITQ; Gastric inhibitory polypeptide; UniProt P09681 52-93, looked up, variant E3P)
- agonism [2]: full agonist with identical maximum response as human GIP

- GIP(1-42)-stimulated cAMP accumulation in HEK 293T cells, pEC50 [3]: 6.79
Substance: glucose-dependent insulinotropic polypeptide GIP(1-42) (from UniProt P09681 52-93)
